The target in one assay is α4β1 integrin (Homo sapiens (Human), UniProt P05556+P13612). Briefly: Integrin Adhesion Assay: Protocol 5 (VCAM-coated plate, RPMI-8866 cells with stable LOF mutation of the ITGB7 gene). Type of assay: cell-based. Put shortly: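 RPMI-8866 B cells with CRISPR/Cas9 ITGB7 knockout (clonal, verified by flow cytometry) adhered to VCAM-coated wells for 1 h at 37° C in HEPES/NaCl buffer with 1 mM MnCl2, 0.1 mM CaCl2, 1% BSA, 1% DMSO. Bound cells quantified by CellTiter-Glo luminescence after washing; % inhibition versus DMSO and control, 4-parameter fit.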
α4β1 integrin, sequence (P13612 34-1032): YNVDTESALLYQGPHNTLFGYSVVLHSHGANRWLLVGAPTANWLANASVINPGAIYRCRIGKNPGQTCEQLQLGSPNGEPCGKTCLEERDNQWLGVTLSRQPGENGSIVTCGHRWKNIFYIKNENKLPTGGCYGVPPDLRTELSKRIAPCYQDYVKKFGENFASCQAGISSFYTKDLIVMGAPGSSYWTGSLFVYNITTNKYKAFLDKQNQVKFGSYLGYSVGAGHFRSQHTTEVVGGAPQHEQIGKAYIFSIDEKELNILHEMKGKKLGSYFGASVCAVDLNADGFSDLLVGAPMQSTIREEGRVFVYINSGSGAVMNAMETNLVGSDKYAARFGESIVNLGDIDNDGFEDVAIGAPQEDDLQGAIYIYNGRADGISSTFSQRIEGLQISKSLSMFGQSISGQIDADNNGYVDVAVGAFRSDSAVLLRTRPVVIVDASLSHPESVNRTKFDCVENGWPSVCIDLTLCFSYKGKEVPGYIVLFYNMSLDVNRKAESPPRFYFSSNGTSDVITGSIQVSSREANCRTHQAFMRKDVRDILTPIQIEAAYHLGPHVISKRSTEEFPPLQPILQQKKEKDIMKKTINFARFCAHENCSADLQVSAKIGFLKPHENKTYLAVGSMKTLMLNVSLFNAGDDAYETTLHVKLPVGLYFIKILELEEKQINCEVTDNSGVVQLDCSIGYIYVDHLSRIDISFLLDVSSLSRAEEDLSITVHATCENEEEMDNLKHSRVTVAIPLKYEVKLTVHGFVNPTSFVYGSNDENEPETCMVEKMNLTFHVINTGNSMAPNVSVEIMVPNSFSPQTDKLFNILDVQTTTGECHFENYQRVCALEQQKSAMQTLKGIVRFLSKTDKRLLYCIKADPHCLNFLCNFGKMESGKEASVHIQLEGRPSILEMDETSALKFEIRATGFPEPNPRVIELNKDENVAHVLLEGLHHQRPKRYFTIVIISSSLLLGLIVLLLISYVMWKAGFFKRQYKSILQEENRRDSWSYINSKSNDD
α4β1 integrin, sequence (P05556 21-798): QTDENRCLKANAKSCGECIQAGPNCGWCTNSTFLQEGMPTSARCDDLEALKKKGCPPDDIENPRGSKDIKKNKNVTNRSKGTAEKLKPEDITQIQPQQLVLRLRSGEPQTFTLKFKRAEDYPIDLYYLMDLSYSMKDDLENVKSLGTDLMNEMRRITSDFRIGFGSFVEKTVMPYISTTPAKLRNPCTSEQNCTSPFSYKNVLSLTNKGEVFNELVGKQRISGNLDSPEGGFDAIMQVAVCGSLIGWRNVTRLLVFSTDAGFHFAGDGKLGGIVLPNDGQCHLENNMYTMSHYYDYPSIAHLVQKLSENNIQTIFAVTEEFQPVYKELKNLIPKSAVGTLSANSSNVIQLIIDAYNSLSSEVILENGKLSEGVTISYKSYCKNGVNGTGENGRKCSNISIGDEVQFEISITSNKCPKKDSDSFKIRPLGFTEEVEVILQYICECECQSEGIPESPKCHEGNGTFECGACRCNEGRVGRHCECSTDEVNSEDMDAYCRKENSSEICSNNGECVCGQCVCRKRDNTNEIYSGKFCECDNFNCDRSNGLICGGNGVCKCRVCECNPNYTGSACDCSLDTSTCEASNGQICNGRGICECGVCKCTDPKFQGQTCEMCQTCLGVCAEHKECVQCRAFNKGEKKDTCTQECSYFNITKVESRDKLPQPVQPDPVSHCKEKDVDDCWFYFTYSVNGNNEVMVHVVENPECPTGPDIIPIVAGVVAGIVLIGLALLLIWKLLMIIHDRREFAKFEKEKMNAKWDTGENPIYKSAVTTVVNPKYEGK

In the next assay the target is α4β7 integrin (Homo sapiens (Human), UniProt P13612+P26010). In words: Integrin Adhesion Assay: Protocol 4 (MAdCAM-coated plate, RPMI-8866 cells with stable LOF mutation of the ITGB1 gene). Type of assay: cell-based. Summed up:
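RPMI-8866 cells with CRISPR/Cas9 knockout of ITGB1 (2×10^6/mL) were added to MAdCAM-coated wells with compound (1% DMSO) in HEPES/NaCl buffer with 1 mM MnCl2, 0.1 mM CaCl2 and 1% BSA, then incubated 1 h at 37 °C. After four washes, adherent cells were quantified by CellTiter-Glo luminescence. Percent inhibition versus DMSO and control compound was fitted to 4-parameter curves.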

The mark [1] stands for this setting: Protocol 5, RPMI-8866 cells with LOF mutation of ITGB7, VCAM, read-out: Mean IC50 α4β1 KO.
[2] abbreviates: Protocol 4, RPMI-8866 cells with LOF mutation of ITGB1, MAdCAM, read-out: Mean IC50 α4β7 KO.
The mark [3] stands for this setting: RPMI-8866 cells with stable LOF mutation of the ITGB7 gene, read-out: Mean IC50 α4β1 KO^b.
[4] abbreviates: RPMI-8866 cells with stable LOF mutation of the ITGB1 gene, read-out: Mean IC50 α4β7 KO^a.

Read-outs that look alike come from different tables or passages of the source. Some results are limits rather than exact numbers.

α4β7 integrin, sequence (P13612 34-1032): as the sequence (P13612 34-1032) above
α4β7 integrin, sequence (P26010 20-798): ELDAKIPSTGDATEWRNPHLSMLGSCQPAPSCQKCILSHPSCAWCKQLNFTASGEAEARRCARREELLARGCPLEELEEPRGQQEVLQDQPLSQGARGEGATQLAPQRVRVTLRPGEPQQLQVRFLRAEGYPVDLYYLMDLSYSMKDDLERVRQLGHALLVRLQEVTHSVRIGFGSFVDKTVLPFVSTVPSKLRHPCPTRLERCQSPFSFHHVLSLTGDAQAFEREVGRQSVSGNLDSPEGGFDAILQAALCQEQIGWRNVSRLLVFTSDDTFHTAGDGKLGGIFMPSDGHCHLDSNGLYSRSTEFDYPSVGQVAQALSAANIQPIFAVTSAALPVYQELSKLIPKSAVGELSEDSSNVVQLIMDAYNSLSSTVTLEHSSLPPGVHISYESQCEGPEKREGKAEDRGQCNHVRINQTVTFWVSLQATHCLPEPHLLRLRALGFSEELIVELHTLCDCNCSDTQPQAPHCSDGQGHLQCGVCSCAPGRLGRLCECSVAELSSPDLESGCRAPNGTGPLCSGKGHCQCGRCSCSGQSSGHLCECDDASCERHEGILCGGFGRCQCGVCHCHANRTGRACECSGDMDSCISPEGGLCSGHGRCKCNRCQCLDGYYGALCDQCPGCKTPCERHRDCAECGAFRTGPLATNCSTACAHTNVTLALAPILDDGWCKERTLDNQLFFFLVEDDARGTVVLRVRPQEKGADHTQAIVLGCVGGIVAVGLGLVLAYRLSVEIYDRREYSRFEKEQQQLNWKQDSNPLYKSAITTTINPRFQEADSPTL

On to `COc1cccc(CCN2CCC(C)(C)CC2)c1-c1cccc2c(C[C@H](NC(=O)C3(C(F)(F)F)CCN(CC(F)(F)F)CC3)C(=O)O)cccc12` [Compound 960], for which the half-inhibitory concentration (IC50) (commonly the concentration that gives 50% inhibition) was more than 1000 nM on α4β1 integrin (setting [1]) and less than 10 nM at α4β7 integrin (setting [2]).
As for `COc1cnc(CN(C)C)cc1-c1cccc2c(C[C@H](NC(=O)c3c(C)cccc3F)C(=O)O)cccc12` [Compound 601], the IC50 at α4β1 integrin (setting [3]) was more than 1000 nM; at α4β7 integrin (setting [4]), less than 10 nM.
`COc1cccc(CCN2CCC(F)CC2)c1-c1cccc2c(C[C@H](NC(=O)c3c(C)cccc3F)C(=O)O)cccc12` [Compound 1035]: the IC50 is more than 1000 nM at α4β1 integrin (setting [1]) and 10 to 100 nM on α4β7 integrin (setting [2]).
On to `O=C(O)[C@H](Cc1cccc2c(-c3nccc4c(CN5CCCC5)cccc34)cccc12)NC(=O)C1(C(F)(F)F)CCN(CC(F)(F)F)CC1` [Compound 553], for which the values for the IC50 on α4β1 integrin (setting [3]) and on α4β7 integrin (setting [4]) were 100 to 1000 nM and less than 10 nM, respectively.
Consider `O=C(O)[C@H](Cc1cccc2c(-c3ncc(CN4CCC[C@@H](F)C4)c4ccccc34)cccc12)NC(=O)C1(C(F)(F)F)CCN(CC(F)(F)F)CC1` [Compound 855], for which the IC50 at α4β1 integrin (setting [1]) is more than 1000 nM; at α4β7 integrin (setting [2]), 10 to 100 nM.
`COc1cccc(CCN2CCCC(C)(C)C2)c1-c1cccc2c(C[C@H](NC(=O)C3(C(F)(F)F)CCN(CC(F)F)CC3)C(=O)O)cccc12` [Compound 984]: the IC50 on α4β1 integrin (setting [1]) is 100 to 1000 nM; at α4β7 integrin (setting [2]) it was less than 10 nM.
As to `CC1OCCC1N1CCC(C(=O)N[C@@H](Cc2cccc3c(-c4c(C(F)(F)F)c5ccccc5n(C)c4=O)cccc23)C(=O)O)(C(F)(F)F)CC1` (stereo partly drawn) [Compound 509], the IC50 on α4β1 integrin (setting [3]) is 100 to 1000 nM; on α4β7 integrin (setting [4]) it was less than 10 nM.
On to `O=C(O)[C@H](Cc1cccc2c(-c3ncc(CN4CC5(CC5)C4)c4ccccc34)cccc12)NC(=O)C1(C(F)(F)F)CCN(CC(F)(F)F)CC1` [Compound 887], for which the figures for the IC50 at α4β1 integrin (setting [1]) and on α4β7 integrin (setting [2]) were more than 1000 nM and less than 10 nM, respectively.
The corresponding values for `CC1CCN(Cc2cnc(-c3cccc4c(C[C@H](NC(=O)C5(C(F)(F)F)CCN(CC(F)(F)F)CC5)C(=O)O)cccc34)c3ccccc23)CCC1(F)F` (stereo partly drawn) [Compound 875] are more than 1000 nM and 10 to 100 nM.
Regarding `Cc1cc(CN2CCC(C)(C)CC2)cnc1-c1cccc2c(C[C@H](NC(=O)C3(C(F)(F)F)CCN(C4COC4)CC3)C(=O)O)cccc12` [Compound 945], the figures for the IC50 on α4β1 integrin (setting [1]) and at α4β7 integrin (setting [2]) were more than 1000 nM and less than 10 nM, respectively.
With `COc1cc(CN2CCCCC2)ccc1-c1cccc2c(C[C@H](NC(=O)c3c(C)cccc3F)C(=O)O)cccc12` [Compound 666], the results for the 50% inhibitory concentration (IC50) at α4β1 integrin (setting [3]) and on α4β7 integrin (setting [4]) were more than 1000 nM and 10 to 100 nM, respectively.
For the compound `Cc1cc(C(F)(F)F)cc(F)c1C(=O)N[C@@H](Cc1cccc2c(-c3c(C(F)(F)F)c4cc(CN(C)C)ccc4n(C)c3=O)cccc12)C(=O)O` [Compound 700], the figures for the IC50 on α4β1 integrin (setting [1]) and at α4β7 integrin (setting [2]) were more than 1000 nM and 10 to 100 nM, respectively.
Regarding `COc1c2c(cc(C)c1-c1cccc3c(C[C@H](NC(=O)C4(C(F)(F)F)CCN(CC(F)(F)F)CC4)C(=O)O)cccc13)CCN(C)C2` [Compound 735], the IC50 is more than 1000 nM at α4β1 integrin (setting [1]) and less than 10 nM at α4β7 integrin (setting [2]).
On to `O=C(O)[C@H](Cc1cccc2c(-c3nccc4ccc(CCCN5CCCCC5)cc34)cccc12)NC(=O)C1(C(F)(F)F)CCNCC1` [Compound 549], for which the IC50 on α4β1 integrin (setting [3]) was more than 1000 nM; at α4β7 integrin (setting [4]), less than 10 nM.
The corresponding values for `COc1cccc(CN2CCCCC2)c1-c1cccc2c(C[C@H](NC(=O)c3c(F)cccc3Cl)C(=O)O)cccc12` [Compound 674] are 100 to 1000 nM and less than 10 nM.
The corresponding values for `CC(N1CCC(C(=O)N[C@@H](Cc2cccc3c(-c4c(C(F)(F)F)c5ccccc5n(C)c4=O)cccc23)C(=O)O)(C(F)(F)F)CC1)C(F)(F)F` (stereo partly drawn) [Compound 515] are more than 1000 nM and 100 to 1000 nM.
With `CN(C)CCc1cc(-c2cccc3c(C[C@H](NC(=O)C4(C(F)(F)F)CCN(CC(F)(F)F)CC4)C(=O)O)cccc23)c2cnccc2c1` [Compound 469], the results for the IC50 at α4β1 integrin (setting [3]) and on α4β7 integrin (setting [4]) were 100 to 1000 nM and 10 to 100 nM, respectively.
In the case of `COc1ccc(CN2CCC(C)(C)CC2)cc1-c1cccc2c(C[C@H](NC(=O)C3(C(F)(F)F)CCN(CC(F)F)CC3)C(=O)O)cccc12` [Compound 942], the figures for the half-inhibitory concentration (IC50) on α4β1 integrin (setting [1]) and on α4β7 integrin (setting [2]) were 100 to 1000 nM and less than 10 nM, respectively.
As for `COc1ccc(CN2CCC3(CCCCC3)CC2)c(OC)c1-c1cccc2c(C[C@H](NC(=O)c3c(C)cccc3F)C(=O)O)cccc12` [Compound 654], the IC50 is more than 1000 nM at α4β1 integrin (setting [3]) and less than 10 nM on α4β7 integrin (setting [4]).
Consider `O=C(O)[C@H](Cc1cccc2c(-c3ncc(CN4CCC(F)(F)CC4)cc3C3CC3)cccc12)NC(=O)C1(C(F)(F)F)CCN(CC(F)F)CC1` [Compound 951], for which the figures for the IC50 at α4β1 integrin (setting [1]) and on α4β7 integrin (setting [2]) were 100 to 1000 nM and less than 10 nM, respectively.
Turning to `COc1ccc2c(c1-c1cccc3c(C[C@H](NC(=O)C4(C(F)(F)F)CCN(CC(F)(F)F)CC4)C(=O)O)cccc13)CCN(CC(F)F)C2` [Compound 752], the IC50 on α4β1 integrin (setting [1]) is more than 1000 nM; at α4β7 integrin (setting [2]), 10 to 100 nM.
Consider `O=C(O)[C@H](Cc1cccc2c(-c3ncc(CN4CCCCC4)c4ccccc34)cccc12)NC(=O)C1(C(F)(F)F)CCN([C@@H]2COCC2(F)F)CC1` [Compound 578], for which the IC50 at α4β1 integrin (setting [3]) is more than 1000 nM; at α4β7 integrin (setting [4]) it was less than 10 nM.
Consider `O=C(O)[C@H](Cc1cccc2c(-c3ncccc3CCN3CCCCC3)cccc12)NC(=O)C1(C(F)(F)F)CCN(CC(F)(F)F)CC1` [Compound 965], for which the IC50 at α4β1 integrin (setting [1]) was more than 1000 nM; at α4β7 integrin (setting [2]), 10 to 100 nM.
The corresponding values for `CN(C)Cc1ccc(-c2cccc3c(C[C@H](NC(=O)C4(C(F)(F)F)CCN(CC(F)(F)F)CC4)C(=O)O)cccc23)c2cnccc12` [Compound 695] are more than 1000 nM and less than 10 nM.
As to `COc1ccc(CN2CC(F)C2)c(OC)c1-c1cccc2c(C[C@H](NC(=O)c3c(C)cccc3F)C(=O)O)cccc12` [Compound 590], the 50% inhibitory concentration (IC50) on α4β1 integrin (setting [3]) is more than 1000 nM; on α4β7 integrin (setting [4]), less than 10 nM.
With `COc1ccc(CN2CCCC(C)C2)c(OC)c1-c1cccc2c(C[C@H](NC(=O)c3c(C)cccc3F)C(=O)O)cccc12` (stereo partly drawn) [Compound 643], the IC50 on α4β1 integrin (setting [3]) is 100 to 1000 nM; at α4β7 integrin (setting [4]) it was less than 10 nM.
The corresponding values for `Cn1c(=O)c(-c2cccc3c(C[C@H](NC(=O)C4(C(F)(F)F)CCN(C5(C(F)(F)F)COC5)CC4)C(=O)O)cccc23)c(C(F)(F)F)c2ccccc21` [Compound 491] are more than 1000 nM and 100 to 1000 nM.
The corresponding values for `Cn1c(=O)c(-c2cccc3c(C[C@H](NC(=O)C4(C(F)(F)F)CCN(C5CCS(=O)(=O)CC5)CC4)C(=O)O)cccc23)c(C(F)(F)F)c2ccccc21` [Compound 505] are more than 1000 nM and 10 to 100 nM.
Take `CC1CCN(Cc2cnc(-c3cccc4c(C[C@H](NC(=O)C5(C(F)(F)F)CCN(CC(F)F)CC5)C(=O)O)cccc34)c3ccccc23)CCC1(F)F` (stereo partly drawn) [Compound 926]: the IC50 on α4β1 integrin (setting [1]) is more than 1000 nM; on α4β7 integrin (setting [2]), less than 10 nM.
The corresponding values for `COc1cc(CN2CCC[C@H](F)C2)cc(C(F)(F)F)c1-c1cccc2c(C[C@H](NC(=O)C3(C(F)(F)F)CCN(CC(F)(F)F)CC3)C(=O)O)cccc12` [Compound 848] are more than 1000 nM and 10 to 100 nM.
As to `COc1ccc(CN2CCN(C3CCC3)CC2)c(OC)c1-c1cccc2c(C[C@H](NC(=O)c3c(C)cccc3F)C(=O)O)cccc12` [Compound 656], the IC50 on α4β1 integrin (setting [3]) is 100 to 1000 nM; on α4β7 integrin (setting [4]), less than 10 nM.
The corresponding values for `O=C(O)[C@H](Cc1cccc2c(-c3ncc(CN4CCCCC4)c4ccccc34)cccc12)NC(=O)C1(C(F)(F)F)CCN(CCC(F)(F)F)CC1` [Compound 682] are more than 1000 nM and less than 10 nM.
On to `Cn1c(=O)c(-c2cccc3c(C[C@H](NC(=O)C4(C)CCC5(CCOCC5)CC4)C(=O)O)cccc23)c(C(F)(F)F)c2ccccc21` [Compound 522], for which the IC50 on α4β1 integrin (setting [3]) was more than 1000 nM; on α4β7 integrin (setting [4]), 10 to 100 nM.
The corresponding values for `COc1ccc(CN2CCC(F)(F)CC2)c(OC)c1-c1cccc2c(C[C@H](NC(=O)c3c(C)cncc3F)C(=O)O)cccc12` [Compound 604] are more than 1000 nM and less than 10 nM.
`O=C(O)[C@H](Cc1cccc2c(-c3ncc(CCN4CCCCC4)c4ccccc34)cccc12)NC(=O)C1(C(F)(F)F)CCN(CC(F)(F)F)CC1` [Compound 962]: the 50% inhibitory concentration (IC50) at α4β1 integrin (setting [1]) was more than 1000 nM; at α4β7 integrin (setting [2]), less than 10 nM.
The corresponding values for `CC1(C)CCN(Cc2cnc(-c3cccc4c(C[C@H](NC(=O)C5(C(F)(F)F)CCN(CC(F)F)CC5)C(=O)O)cccc34)c3ccccc23)CC1` [Compound 861] are 100 to 1000 nM and less than 10 nM.
As to `CC[C@H](N1CCC(C(=O)N[C@@H](Cc2cccc3c(-c4c(C(F)(F)F)c5ccccc5n(C)c4=O)cccc23)C(=O)O)(C(F)(F)F)CC1)C(F)(F)F` [Compound 518], the half-maximal inhibitory concentration (IC50) on α4β1 integrin (setting [3]) and on α4β7 integrin (setting [4]) was more than 1000 nM in each case.
Regarding `Cc1cccc(F)c1C(=O)N[C@@H](Cc1cccc2c(-c3cc(CN4CCCCC4)ccn3)cccc12)C(=O)O` [Compound 688], the IC50 is more than 1000 nM on α4β1 integrin (setting [1]) and 10 to 100 nM on α4β7 integrin (setting [2]).
The corresponding values for `COc1cc(CCN2CCCCC2)ccc1-c1cccc2c(C[C@H](NC(=O)c3c(C)cccc3F)C(=O)O)cccc12` [Compound 740] are more than 1000 nM and less than 10 nM.

The values are drawn from patent US20250313535A1, “ALPHA 4 BETA 7 INTEGRIN MODULATORS AND USES THEREOF” (DICE MOLECULES SV, INC., priority 2022, published 2025).
